Measured values taken from PMC4113009, “Dihydroisoxazole inhibitors of Anopheles gambiae seminal transglutaminase AgTG3” (Malaria Journal, 2014).
pIC50: −log10 of the molar value. Where two headings read alike, the source gives them in different places. One block for each compound: values may come before it.

Columns and labels:
AgTG3 [1] = target: T1, AgTG3 (Anopheles gambiae, UniProt D2K8K8); assay: AgTG3 plugin cross-linking assay (SDS-PAGE, FITC-CAD); format: biochemical; details: for Inhibition of plugin-C cross-linking by AgTG3 (controls): 10 mM EDTA, 50 mM IA, 5 mM CaCl2
Method: Recombinant AgTG3 was pre-incubated with 100 μM inhibitors overnight at room temperature. AgTG3, with and without pretreatment with inhibitors (1 μg), was added to plugin-C (20 μg) and 0.5 mM FITC-cadaverine (FITC-CAD) in 25 mM HEPES, pH 7.5, 10 mM CaCl2, 1 mM DTT. The reaction was incubated at room temperature for 2 h and quenched by heat denaturation of the proteins in the presence of Laemmli buffer. The extent of cross-linking was analysed by sodium dodecyl sulphate-polyacrylamide gel electrophoresis (SDS-PAGE). The gel was scanned using Alpha Imager 2200 software.
Additional assays were performed to examine whether compounds 1 and 3 would inhibit the cross-linking of plugin-C by AgTG3 in solution, with FITC-CAD for fluorescent detection of plugin-C. Results were assessed by SDS/PAGE and UV illumination to detect FITC-CAD (Figure 7). […] In the presence of enzyme, substrate and calcium a ladder of fluorescent bands of increasing molecular weight (MW) is observed (lane 4), corresponding to cross-linked oligomers of plugin also labeled by FITC-CAD. […] However, the levels of AgTG3 in solution assays are higher in the cross-linking assay than the primary screen. The levels of plugin-C were also higher, which competes with slow-binding irreversible inhibitors such as 1 and 3 for the active site of AgTG3.
Figure 7 Inhibition of plugin cross-linking by DHI inhibitors. Fluorescent image of SDS-PAGE for FITC-cadaverine labeling and cross-linking of plugin by AgTG3. Lanes (1–4): (1) AgTG3, (2) Plugin-C, (3) AgTG3 and plugin-C, (4) AgTG3, plugin-C, and 5 mM CaCl2. Lanes (5–8): AgTG3, plugin-C, 5 mM CaCl2 and (5) 10 mM EDTA, (6) 50 mM IA, (7) 100 μM 1, (8) 100 μM 3. (below) Coomassie stain indicating relative levels of monomeric Plugin-C.

AgTG3 [2] = target: T1, AgTG3; assay: biochemical; details: for Activity against AgTG3 in dose–response assay: up to 100 μM; for Inhibition of AgTG3 in primary screen: 100 μM, triplicate
Method: Plugin-C (25 μg/well) was incubated in black 96-well Ni-coated plates (Pierce 15342) for 2 h at room temperature or overnight at 4°C. Plates were washed three times with 200 μL of TBS and loaded with 0.5 μg of AgTG3 in 50 μL TBS buffer. DHI inhibitors were added for 1 h to block the enzyme, followed by 50 μL of 2× assay buffer (2× TBS, 20 mM CaCl2, 100 μM FITC-CAD, 2 mM DTT). Wells were incubated for 60 min at room temperature, washed three times with 200 μL of TBS, and filled to a final volume of 100 μL for fluorescence measurements in a microplate reader (Biotek Synergy 2). The z-score was calculated based on the mean and standard deviation of three replicates of inhibitor compared to a DMSO control, zi=x¯DMSO-x¯i/σDMSO+σi .
The targeted chemical library was screened for inhibition of AgTG3 at 100 μM in a FITC-CAD plate assay (Figure 3A), performed in triplicate as previously described. Hit-calling was based on >67% decrease in fluorescence compared to DMSO and z > 5. Seven compounds fulfilled these criteria in the primary assay.
To verify the results of this preliminary assay, dose–response curves in the range of 0.5–100 μM were determined for 27 structurally related compounds within the targeted library (Additional file 3: Table S2 and Additional file 4: Table S3). […] Selected stereoisomers present in the targeted library were compared in equivalent dose–response assays. Inhibition of AgTG3 was specific for the (S)-DHI isomer of 1 (Figure 4A), the (R) isomer (4) displaying no activity (IC50 > 100 μM).

[3] = parameters: method as in PMID 21275056; details: 50 mg/kg, intraperitoneal injection; cited from earlier work
[4] = tested on: model of human African trypanosomiasis; parameters: method as in PMID 21275056; details: cited from earlier work
tumor model = tested on: tumor model; parameters: method as in PMID 22996645; details: cited from earlier work
Drosophila = tested on: Drosophila; parameters: method as in PMID 22996645; details: delivered orally ad libitum, 10 μM in agar; cited from earlier work
[5] = target: T2, recombinant tobacco etch virus (TEV) protease (Tobacco etch virus, UniProt P04517); assay: Cysteine protease inhibition assay, TEV protease (GST-gp78 cleavage, SDS-PAGE); format: biochemical; details: 3 at 100 μM, compared to a DMSO control
T2 construct: recombinant tobacco etch virus (TEV) protease
Method: The activity of recombinant tobacco etch virus (TEV) protease was determined by cleavage of a fusion protein containing a TEV cleavage site between GST and a 17 kDa fragment of human gp78. TEV and GST-gp78 were incubated at 37°C for 10 min at a substrate:enzyme mass ratio of 10:1. The reaction was stopped by adding 3× loading buffer (150 mM Tris–HCl pH 6.8, 300 mM DTT, 6% (w/v) SDS, 0.06% (w/v) bromophenol blue, 30% (v/v) glycerol). Samples were heated at 95°C for 3 min and separated by 4–20% gradient SDS-PAGE.
(§1) Transglutaminases and cysteine proteases have a similar catalytic mechanism involving an active site cysteine and formation of a thioacyl intermediate. […] To test this hypothesis, the inhibition of two cysteine proteases, human caspase-1 and recombinant tobacco etch virus (TEV) protease by 3 at 100 μM were tested using a chromogenic and SDS-PAGE assay, respectively (Figure 9). […] Neither human caspase-1 nor TEV are endogenous proteins in A. gambiae, which may well contain other endogenous targets of 1–3, not least the two other transglutaminases in the A. gambiae genome.

human caspase-1 = target: T3, human caspase-1 (Homo sapiens, UniProt P29466); assay: Cysteine protease inhibition assay, caspase-1 (Ac-YVAD-pNA); format: biochemical; details: 3 at 100 μM, compared to a DMSO control, chromogenic assay
T3 construct: purchased Abcam
T3 sequence (P29466 120-297 limits assumed): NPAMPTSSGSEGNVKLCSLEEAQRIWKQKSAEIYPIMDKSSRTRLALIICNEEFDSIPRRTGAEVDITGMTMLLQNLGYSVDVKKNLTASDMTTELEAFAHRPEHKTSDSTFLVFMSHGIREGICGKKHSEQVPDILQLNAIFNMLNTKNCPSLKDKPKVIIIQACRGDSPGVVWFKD
T3 sequence (P29466 317-404 limits assumed): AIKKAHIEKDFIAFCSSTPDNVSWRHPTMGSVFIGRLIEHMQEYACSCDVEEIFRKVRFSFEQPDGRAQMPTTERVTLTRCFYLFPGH
Method: The activity of caspase-1 was determined by use of chromogenic substrate Ac-YVAD-pNA (Enzo Life Sciences, NY, USA). The assay was performed by adding 45 μL of 1 Unit caspase-1 (Abcam, MA, USA) and 5 μL of Ac-YVAD-pNA (final concentration, 5 μM) to 50 μL assay buffer (50 mM HEPES pH 7.4, 10 mM DTT, 1 mM EDTA, 0.1% CHAPS, 20% glycerol). Substrate cleavage after 1 h incubation at 37°C was measured by […] absorbance at 400 nm in a benchtop UV/Vis spectrophotometer (UV1800, Shimadzu, Kyoto, Japan).
as §1

hTG2 = details: cited from earlier work
[6] = dose–response curves in the range of 0.5–100 μM, FITC-CAD plate assay, read-out: IC50 for inhibition of AgTG3
[7] = dose–response, 27 dihydroisoxazole inhibitors, read-out: IC50 (Supplementary Table 3, AgTG3)

T1 sequence (D2K8K8 entry or part of it): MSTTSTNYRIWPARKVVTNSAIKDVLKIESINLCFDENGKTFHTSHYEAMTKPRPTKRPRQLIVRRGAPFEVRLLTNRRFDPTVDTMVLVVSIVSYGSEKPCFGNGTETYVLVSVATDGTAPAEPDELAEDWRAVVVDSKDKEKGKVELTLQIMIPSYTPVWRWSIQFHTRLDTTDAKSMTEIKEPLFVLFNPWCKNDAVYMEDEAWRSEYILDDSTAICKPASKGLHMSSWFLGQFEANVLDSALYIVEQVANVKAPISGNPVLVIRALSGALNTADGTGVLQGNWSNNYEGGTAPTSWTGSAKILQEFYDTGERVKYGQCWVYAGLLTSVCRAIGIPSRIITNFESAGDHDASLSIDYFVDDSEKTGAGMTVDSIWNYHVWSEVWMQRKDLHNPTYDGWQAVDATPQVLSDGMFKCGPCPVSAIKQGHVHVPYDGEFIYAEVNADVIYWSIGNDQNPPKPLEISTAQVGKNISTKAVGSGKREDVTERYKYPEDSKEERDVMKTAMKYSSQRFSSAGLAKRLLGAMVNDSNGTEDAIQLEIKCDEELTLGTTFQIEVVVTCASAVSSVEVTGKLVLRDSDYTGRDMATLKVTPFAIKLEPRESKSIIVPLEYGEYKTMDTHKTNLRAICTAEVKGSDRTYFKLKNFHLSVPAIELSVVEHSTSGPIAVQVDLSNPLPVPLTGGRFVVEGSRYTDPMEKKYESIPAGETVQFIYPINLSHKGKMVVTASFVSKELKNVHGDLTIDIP
T2 sequence (P04517 2038-2279): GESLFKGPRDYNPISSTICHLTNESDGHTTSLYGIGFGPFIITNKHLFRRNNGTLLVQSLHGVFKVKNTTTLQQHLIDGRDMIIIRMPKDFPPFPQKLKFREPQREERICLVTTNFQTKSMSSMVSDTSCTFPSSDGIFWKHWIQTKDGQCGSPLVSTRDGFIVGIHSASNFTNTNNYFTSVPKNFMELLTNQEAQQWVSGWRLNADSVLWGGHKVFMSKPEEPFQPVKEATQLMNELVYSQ

Structure (SMILES): O=C(N[C@@H](Cc1c[nH]c2ccc(F)cc12)C(=O)NC[C@@H]1CC(Br)=NO1)OCc1cnc2ccccc2c1
Inhibition of plugin-C cross-linking by AgTG3 (AgTG3 [1]; 100 μM inhibitor, 5 mM CaCl2, intensity of high MW bands): inhibited the cross-linking of plugin
pIC50 (AgTG3 [2]; [6]): 5.51

pIC50 (AgTG3 [2]; [6]): 5.01
Structure (SMILES): O=C(N[C@@H](Cc1c[nH]c2ccc(F)cc12)C(=O)NC[C@@H]1CC(Br)=NO1)OCc1cnc2ccccc2n1

pIC50 (AgTG3 [2]; [6]): 4.91
pIC50 (AgTG3 [2]; [7]): 4.92
Structure (SMILES): O=C(N[C@@H](Cc1c[nH]c2ccc(F)cc12)C(=O)NC[C@@H]1CC(Br)=NO1)OCc1ccnc2ccccc12

pIC50 (AgTG3 [2]; [6]): 4.25
Structure (SMILES): CC(C)(C)OC(=O)N[C@@H](Cc1c[nH]c2ccc(F)cc12)C(=O)NC[C@@H]1CC(Br)=NO1

pIC50 (AgTG3 [2]; [6]): 5.37
Structure (SMILES): O=C(N[C@@H](Cc1c[nH]c2ccc(O)cc12)C(=O)NC[C@@H]1CC(Br)=NO1)OCc1cnc2ccccc2c1

pIC50 (AgTG3 [2]; [6]): < 4.00
Structure (SMILES): O=C(N[C@@H](Cc1c[nH]c2ccc(F)cc12)C(=O)NC[C@H]1CC(Br)=NO1)OCc1cnc2ccccc2c1

pIC50 (AgTG3 [2]; [7]): 4.74
Structure (SMILES): O=C(N[C@@H](Cc1csc2ccccc12)C(=O)NC[C@@H]1CC(Br)=NO1)OCc1cnc2ccccc2c1

Structure (SMILES): N[C@H](C(=O)O)[C@@H]1CC(Br)=NO1 [3-bromoacivicin]
Acute toxicity in mice [3]: no acute toxicity
Activity in vivo in a model of human African trypanosomiasis [4]: active in vivo

Structure (SMILES): N[C@H](C(=O)O)[C@@H]1CC(Cl)=NO1 [Acivicin, acivicin]
Activity in vivo in a tumor model (tumor model): active in vivo
Toxicity to Drosophila (Drosophila): non-toxic

pIC50 (AgTG3 [2]; [6]): 4.54
Structure (SMILES): O=C(N[C@@H](Cc1ccccc1)C(=O)NC[C@@H]1CC(Br)=NO1)OCc1cnc2ccccc2c1 [Compound 5]

pIC50 (AgTG3 [2]; [7]): < 4.00
Activity against AgTG3 in dose–response assay (AgTG3 [2]): inactive
Structure (SMILES): O=C(N[C@H](Cc1ccccc1)C(=O)NC[C@@H]1CC(Br)=NO1)OCc1cnc2ccccc2c1 [Compound 6]

pIC50 (AgTG3 [2]; [6]): ~4.52
pIC50 (AgTG3 [2]; [7]): 4.55
Structure (SMILES): O=C(N[C@@H](Cc1ccccc1F)C(=O)NC[C@@H]1CC(Br)=NO1)OCc1cnc2ccccc2c1 [Compound 8]

pIC50 (AgTG3 [2]; [7]): < 4.00
Activity against AgTG3 in dose–response assay (AgTG3 [2]): inactive
Structure (SMILES): O=C(N[C@@H](Cc1ccc(I)cc1)C(=O)NC[C@@H]1CC(Br)=NO1)OCc1cnc2ccccc2c1 [Compound 11]

pIC50 (AgTG3 [2]; [7]): < 4.00
Structure (SMILES): O=C(N[C@@H](Cc1ccc(O)cc1)C(=O)NC[C@H]1CC(Br)=NO1)OCc1ccccc1 [Compound D26]

pIC50 (AgTG3 [2]; [7]): < 4.00
Structure (SMILES): O=C(N[C@@H](Cc1ccc(O)cc1)C(=O)NC[C@@H]1CC(Br)=NO1)OCc1ccccc1 [Compound D27]

pIC50 (AgTG3 [2]; [7]): < 4.00
Structure (SMILES): O=C(N[C@@H](Cc1ccc(O)cc1)C(=O)NC[C@H]1CC(Br)=NO1)OCc1cnc2ccccc2c1 [Compound D62]

Structure (SMILES): O=C(N[C@@H](Cc1ccc(O)cc1)C(=O)NC[C@H]1CC(Br)=NO1)OCC1c2ccccc2-c2ccccc21 [Compound D71]
pIC50 (AgTG3 [2]; [7]): < 4.00

Structure (SMILES): O=C(N[C@@H](Cc1ccc(O)cc1)C(=O)NC[C@@H]1CC(Br)=NO1)OCC1c2ccccc2-c2ccccc21 [Compound D73]
pIC50 (AgTG3 [2]; [7]): < 4.00

Structure (SMILES): CN(C(=O)OCc1cnc2ccccc2c1)[C@@H](Cc1ccccc1)C(=O)NC[C@@H]1CC(Br)=NO1 [Compound D83]
pIC50 (AgTG3 [2]; [7]): < 4.00

Structure (SMILES): O=C(N[C@@H](Cc1ccc(-c2ccccc2)cc1)C(=O)NC[C@@H]1CC(Br)=NO1)OCc1cnc2ccccc2c1 [Compound D84]
pIC50 (AgTG3 [2]; [7]): < 4.00

Structure (SMILES): O=C(N[C@@H](CCc1ccccc1)C(=O)NC[C@@H]1CC(Br)=NO1)OCc1cnc2ccccc2c1 [Compound D85]
pIC50 (AgTG3 [2]; [7]): < 4.00

Structure (SMILES): O=C(N[C@@H](Cc1cccc2ccccc12)C(=O)NC[C@@H]1CC(Br)=NO1)OCc1cnc2ccccc2c1 [Compound D86]
pIC50 (AgTG3 [2]; [7]): < 4.00

Structure (SMILES): C[C@@](Cc1ccccc1)(NC(=O)OCc1cnc2ccccc2c1)C(=O)NC[C@@H]1CC(Br)=NO1 [Compound D91]
pIC50 (AgTG3 [2]; [7]): < 4.00

Structure (SMILES): C[C@@H](c1ccccc1)[C@H](NC(=O)OCc1cnc2ccccc2c1)C(=O)NC[C@@H]1CC(Br)=NO1 [Compound D94]
pIC50 (AgTG3 [2]; [7]): 4.08

Structure (SMILES): C#Cc1ccc(COC(=O)N[C@@H](Cc2ccc(O)cc2)C(=O)NC[C@@H]2CC(Br)=NO2)cc1 [Compound D142]
pIC50 (AgTG3 [2]; [7]): < 4.00

Structure (SMILES): [N-]=[N+]=Nc1ccc(COC(=O)N[C@@H](Cc2ccc(O)cc2)C(=O)NC[C@@H]2CC(Br)=NO2)cc1 [Compound D143]
pIC50 (AgTG3 [2]; [7]): < 4.00

Structure (SMILES): O=C(O)CN(CCN(CC(=O)O)CC(=O)O)CC(=O)O [EDTA, reference compound]
Inhibition of plugin-C cross-linking by AgTG3 (controls) (AgTG3 [1]): Cross-linking is inhibited

Structure (SMILES): NC(=O)CI [IA, iodoacetamide, reference compound]
Inhibition of TEV protease [5]: potent inhibitor of the enzyme
Inhibition of caspase-1 (human caspase-1): potent inhibitor of the enzyme
Inhibition of plugin-C cross-linking by AgTG3 (controls) (AgTG3 [1]): Cross-linking is inhibited

Structure (SMILES): NNC(=O)CSc1nc2scc(-c3ccccc3)c2c(=O)n1-c1ccccc1 [LDN-27219, reference compound]
pIC50 (hTG2): > 5.00
Inhibition of AgTG3 in primary screen (AgTG3 [2]): neither the eight acylidene oxoindoles tested nor the thienopyrimidinone LDN-27219 inhibited AgTG3
Inhibition of AgTG3 in primary screen (AgTG3 [2]; listed as LD-217912): neither acylidene oxoindoles nor the thienopyrimidinone LD-217912 showed any inhibition
